For one test, the species on record is Cavia porcellus. Put plainly: Selectivity ratio of Ki for guinea pig brain sigma1 receptor to Ki for guinea pig brain sigma2 receptor.
The target in test [1] is Glutamate receptor ionotropic, NMDA 2B (Rattus norvegicus) (UniProt Q00960). In words: Displacement of [3H]ifenprodil from Wistar rat cerebral cortex glutamate NMDA receptor GluN2B subunit at 10 uM after 120 mins by scintillation counting analysis. It is filed as tissue-based.
In test [2] the target is Sigma non-opioid intracellular receptor 1 (Cavia porcellus, UniProt Q60492). In words: Displacement of [3H]-(+)-pentazocine from guinea pig brain sigma1 receptor after 150 mins by scintillation counting analysis. On the technique in general: In a radioligand displacement assay an active substance lowers the binding of a labelled ligand.
Test [3] in a line: Displacement of [3H]DTG from guinea pig brain sigma2 receptor after 120 mins by scintillation counting analysis in presence of SKF10,047. More on the design: species or system Cavia porcellus.
Test [4] has as its target Glutamate receptor ionotropic, NMDA 2B (Rattus norvegicus, UniProt Q00960). In words: Displacement of [3H]ifenprodil from Wistar rat cerebral cortex glutamate NMDA receptor GluN2B subunit after 120 mins by scintillation counting analysis. Type of test: tissue-based.

pKi: −log10 of the molar value. The source made the active and inactive calls. No cut-off for these calls is given here.

Sigma non-opioid intracellular receptor 1, sequence (Q60492 whole entry): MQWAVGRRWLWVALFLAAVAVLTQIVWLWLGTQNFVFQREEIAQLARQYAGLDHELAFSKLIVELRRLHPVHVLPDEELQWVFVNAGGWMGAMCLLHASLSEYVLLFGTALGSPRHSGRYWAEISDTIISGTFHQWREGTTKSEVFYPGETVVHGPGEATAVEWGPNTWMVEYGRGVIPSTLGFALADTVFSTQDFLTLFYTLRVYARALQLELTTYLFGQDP
Glutamate receptor ionotropic, NMDA 2B (Rattus norvegicus), sequence (Q00960 27-1482 limits assumed): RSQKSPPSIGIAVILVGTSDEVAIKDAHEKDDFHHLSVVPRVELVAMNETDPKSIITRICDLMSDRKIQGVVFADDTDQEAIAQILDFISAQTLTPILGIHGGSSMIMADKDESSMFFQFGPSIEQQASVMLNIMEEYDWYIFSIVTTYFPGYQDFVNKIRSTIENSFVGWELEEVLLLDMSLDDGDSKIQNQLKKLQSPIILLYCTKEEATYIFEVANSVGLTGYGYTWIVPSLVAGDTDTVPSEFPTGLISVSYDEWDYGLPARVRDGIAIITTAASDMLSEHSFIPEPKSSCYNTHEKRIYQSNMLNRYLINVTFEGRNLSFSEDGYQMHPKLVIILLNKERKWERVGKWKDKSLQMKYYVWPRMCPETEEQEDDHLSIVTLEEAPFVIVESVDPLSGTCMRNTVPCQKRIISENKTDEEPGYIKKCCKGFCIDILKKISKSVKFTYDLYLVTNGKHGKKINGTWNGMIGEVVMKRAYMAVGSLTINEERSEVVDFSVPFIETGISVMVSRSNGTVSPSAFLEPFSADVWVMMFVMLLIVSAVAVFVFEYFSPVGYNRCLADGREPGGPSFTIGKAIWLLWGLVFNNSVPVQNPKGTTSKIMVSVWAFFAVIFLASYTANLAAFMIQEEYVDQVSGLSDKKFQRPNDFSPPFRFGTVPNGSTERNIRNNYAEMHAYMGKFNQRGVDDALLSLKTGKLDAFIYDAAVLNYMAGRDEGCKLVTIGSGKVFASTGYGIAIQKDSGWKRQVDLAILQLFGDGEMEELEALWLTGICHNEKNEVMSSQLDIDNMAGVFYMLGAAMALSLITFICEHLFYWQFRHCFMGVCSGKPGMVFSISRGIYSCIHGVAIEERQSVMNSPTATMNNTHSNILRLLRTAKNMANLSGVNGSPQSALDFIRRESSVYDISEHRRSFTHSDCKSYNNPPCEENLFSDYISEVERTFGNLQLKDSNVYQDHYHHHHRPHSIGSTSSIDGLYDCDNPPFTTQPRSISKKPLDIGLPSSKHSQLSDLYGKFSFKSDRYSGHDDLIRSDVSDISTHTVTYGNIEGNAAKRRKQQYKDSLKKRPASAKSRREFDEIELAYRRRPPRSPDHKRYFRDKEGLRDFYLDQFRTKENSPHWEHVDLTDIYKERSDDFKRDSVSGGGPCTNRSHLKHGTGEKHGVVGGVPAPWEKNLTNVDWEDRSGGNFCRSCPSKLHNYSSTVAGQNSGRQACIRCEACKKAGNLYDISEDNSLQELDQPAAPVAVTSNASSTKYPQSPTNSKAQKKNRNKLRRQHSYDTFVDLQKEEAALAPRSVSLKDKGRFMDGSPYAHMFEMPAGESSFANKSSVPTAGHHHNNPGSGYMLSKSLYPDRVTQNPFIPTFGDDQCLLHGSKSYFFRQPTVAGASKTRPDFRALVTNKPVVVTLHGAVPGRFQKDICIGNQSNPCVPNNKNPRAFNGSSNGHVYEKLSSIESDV
Glutamate receptor ionotropic, NMDA 2B, sequence (Q00960 whole entry): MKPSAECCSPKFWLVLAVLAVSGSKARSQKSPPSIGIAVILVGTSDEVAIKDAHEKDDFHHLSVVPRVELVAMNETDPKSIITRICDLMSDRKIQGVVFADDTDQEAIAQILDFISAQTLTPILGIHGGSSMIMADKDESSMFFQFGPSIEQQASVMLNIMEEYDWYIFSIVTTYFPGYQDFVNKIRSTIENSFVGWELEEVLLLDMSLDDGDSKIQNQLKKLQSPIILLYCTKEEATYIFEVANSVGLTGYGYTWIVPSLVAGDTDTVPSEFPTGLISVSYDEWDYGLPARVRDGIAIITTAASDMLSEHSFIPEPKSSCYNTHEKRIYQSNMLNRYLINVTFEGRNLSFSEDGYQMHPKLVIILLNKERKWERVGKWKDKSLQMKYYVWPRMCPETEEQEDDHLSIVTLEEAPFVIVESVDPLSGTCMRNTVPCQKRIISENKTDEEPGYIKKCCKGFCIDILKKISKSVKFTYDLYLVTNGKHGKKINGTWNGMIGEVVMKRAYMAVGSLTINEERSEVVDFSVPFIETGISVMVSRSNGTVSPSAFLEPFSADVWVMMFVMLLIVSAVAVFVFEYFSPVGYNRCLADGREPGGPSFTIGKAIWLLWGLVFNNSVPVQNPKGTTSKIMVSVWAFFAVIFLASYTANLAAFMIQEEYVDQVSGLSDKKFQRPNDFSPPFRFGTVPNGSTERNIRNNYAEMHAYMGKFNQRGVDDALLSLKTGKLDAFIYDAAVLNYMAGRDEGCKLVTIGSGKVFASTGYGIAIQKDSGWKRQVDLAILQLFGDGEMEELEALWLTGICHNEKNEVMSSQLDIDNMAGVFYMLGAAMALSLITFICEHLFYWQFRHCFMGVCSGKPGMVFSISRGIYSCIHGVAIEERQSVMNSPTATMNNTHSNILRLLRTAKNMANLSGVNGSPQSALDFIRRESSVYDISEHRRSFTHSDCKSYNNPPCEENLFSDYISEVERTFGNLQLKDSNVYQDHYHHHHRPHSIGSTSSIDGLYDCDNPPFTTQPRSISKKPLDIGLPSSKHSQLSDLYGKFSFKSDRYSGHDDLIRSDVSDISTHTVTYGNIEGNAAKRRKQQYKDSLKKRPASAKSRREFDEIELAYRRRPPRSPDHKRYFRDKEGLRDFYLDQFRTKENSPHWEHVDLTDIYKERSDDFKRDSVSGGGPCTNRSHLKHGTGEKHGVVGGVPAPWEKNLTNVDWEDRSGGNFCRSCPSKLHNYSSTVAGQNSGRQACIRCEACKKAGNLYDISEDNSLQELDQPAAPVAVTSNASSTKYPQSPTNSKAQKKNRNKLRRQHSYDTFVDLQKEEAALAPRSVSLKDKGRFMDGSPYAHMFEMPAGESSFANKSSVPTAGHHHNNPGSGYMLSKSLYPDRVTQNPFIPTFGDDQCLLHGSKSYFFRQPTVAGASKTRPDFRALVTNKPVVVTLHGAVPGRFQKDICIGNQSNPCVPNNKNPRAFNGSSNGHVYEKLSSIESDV

In general, inhibition refers to the change of the read-out against control, counted positive when it falls. The term pKi denotes the Ki on a negative log10 scale, so that one unit is a factor of ten. For the compound `O=C(CN1CCC(O)(c2ccccc2)CC1)c1c[nH]c2ccc(O)cc12`, the Ratio Ki in the test filed under Cavia porcellus came out at 4.7. Besides, the inhibition in test [1] worked out at 32%. In addition, the pKi is 5.51 in test [2] and 6.18 in test [3].

Take `O=C(CN1CCC(O)(c2ccc(Cl)cc2)CC1)c1c[nH]c2ccc(O)cc12`: the Ratio Ki in the test listed under Cavia porcellus was 11.9. The inhibition in test [1] came out at 26%. Besides, the pKi was 6.25 in test [2] and 7.33 in test [3].

With `COc1ccc2[nH]cc(C(=O)CN3CCC(O)(c4ccccc4)CC3)c2c1`, in the test filed under Cavia porcellus, the Ratio Ki amounted to 5. The compound further yielded an inhibition in test [1] of 11%. In addition, the results for the pKi in test [2] and in test [3] were 6.99 and 7.68, respectively.

For `COc1ccc2[nH]cc(C(=O)CN3CCC(Cc4ccccc4)CC3)c2c1`, the Ratio Ki in the test listed under Cavia porcellus is over 500. For the same compound, the inhibition in test [1] was found to be 86%. In addition, the pKi in test [2] was under 5.30; in test [3] it was 8.00; in test [4], 5.78.

With `O=C(CN1CCC(Cc2ccccc2)CC1)c1c[nH]c2ccc(O)cc12`, in the test filed under Cavia porcellus, the Ratio Ki was 61.9. In addition, the inhibition in test [1] is 92%. In addition, the values for the pKi in test [2] and in test [3] were 5.32 and 7.12, respectively.

For `COc1ccc2[nH]cc(C(=O)CN3CCC(C(C)=O)(c4ccccc4)CC3)c2c1`, the inhibition entry in test [1] was “inactive”.

Take `CC(=O)C1(c2ccccc2)CCN(CC(=O)c2c[nH]c3ccc(O)cc23)CC1`: the inhibition in test [1] was determined as 6%.

In the case of `O=C(CN1CCC(O)(c2ccc(Br)cc2)CC1)c1c[nH]c2ccc(O)cc12`, the Ratio Ki in the test filed under Cavia porcellus was 3.2. In addition, in test [1], the inhibition came out at 40%. The pKi in test [2] was 6.73; in test [3], 7.24.

In the case of `COc1ccc2[nH]cc(C(=O)CN3CCC(C#N)(c4ccccc4)CC3)c2c1`, in test [1], the inhibition stood at 11%.

For `O=C(CN1CCC(c2ccccc2)CC1)c1c[nH]c2ccc(O)cc12`, the Ratio Ki in the test filed under Cavia porcellus came out at 12. The compound further registered an inhibition in test [1] of 51%. The pKi in test [2] was 5.57; in test [3], 6.65.

Consider `N#CC1(c2ccccc2)CCN(CC(=O)c2c[nH]c3ccc(O)cc23)CC1`, for which, in test [1], the inhibition was found to be 16%.

For the compound `COc1ccc2[nH]cc(C(=O)CN3CCC(O)(c4ccc(Cl)cc4)CC3)c2c1`, the Ratio Ki in the test listed under Cavia porcellus turned out to be 10.5. Besides, the inhibition in test [1] stood at 15%. Moreover, the values for the pKi in test [2] and in test [3] were 7.11 and 8.12, respectively.

On to `COc1ccc2[nH]cc(C(=O)CN3CCC(O)(c4ccc(Br)cc4)CC3)c2c1`, for which the Ratio Ki in the test filed under Cavia porcellus was 6. The same compound had an inhibition in test [1] of 5%. Besides, the pKi in test [2] was 7.22; in test [3], 8.00.

As for `COc1ccc2[nH]cc(C(=O)CN3CCC(c4ccccc4)CC3)c2c1`, the Ratio Ki in the test listed under Cavia porcellus was determined as 95.5. The compound also gave an inhibition in test [1] of 8%. Further, the pKi in test [2] is 5.72; in test [3], 7.70.

For the origin of these results see ChEMBL document CHEMBL3098031, “From NMDA receptor antagonists to discovery of selective σ₂ receptor ligands” (Bioorg Med Chem, 2014).
